Test results reported in patent US20230233576A1, “ECLITASERTIB FOR USE IN TREATING CONDITIONS INVOLVING SYSTEMIC HYPERINFLAMMATORY RESPONSE” (priority 2020, published 2023).

Test system: adult participants hospitalized for severe COVID-19
Assay: Phase 1b severe COVID-19 study: oxygenation (SpO2, SpO2/FiO2 ratio, days without oxygen support, VFD, RFFD)
Assay type: in vivo, human
Details: for Change from baseline in SpO2/FiO2 ratio, point estimate / Change from baseline in SpO2/FiO2 ratio, adjusted treatment difference RIPK1 Inhibitor vs placebo: MMRM, LOCF; for median change from baseline in SpO2/FiO2 ratio: observed data; for median change in SpO2/FiO2 ratio from baseline: LOCF imputation
Method: This study was a multinational, multi-center, double-blind, 2:1 randomized (RIPK1 Inhibitor to placebo), placebo-controlled study in adult participants hospitalized for severe COVID-19.
Participants were assigned to treatment according to randomization list. Six RIPK1 Inhibitor 50 mg capsules (300 mg) or matching placebo capsules were administered orally in fasting or fed conditions twice a day (BID). For participants intubated with feeding tube in place, the IMPs were given as suspension by feeding tube.
The main secondary clinical assessments endpoints included: • Time to 50% decrease from baseline in CRP level • Time to improvement of oxygenation as measured by oxygen saturation≥92% breathing room air over 48 hours or until discharge • Change from baseline in SPO2/FiO2 ratio at Day 7
Other secondary clinical assessment endpoints included: • Number of Days without need for oxygen support and alive (oxygen saturation≥92% breathing room air) up to Day 28 • Numbers of Ventilator-free days and alive up to Day 28 • Change from baseline in markers of inflammation (White blood cell count, differential blood lymphocytes, neutrophil to lymphocyte ratio, IL-6) and D-Dimer at Day 7 and EOT • Incidence of Deaths up to Day 28 • Percentage of participants receiving thrombolytic treatment up to Day 28 • Percentage of participants receiving vasopressor treatment up to Day 28 • Numbers of Respiratory Failure-Free Days (RFFD) and alive up to Day 28
The time to improvement of oxygenation as measured by oxygen saturation>92% breathing room air over 48 hours or until discharge was estimated using the Kaplan-Meier approach and treatment arms were compared in an exploratory fashion using the log-rank test.
Presence of SO2≥92% without use of any supplemental oxygen device on two consecutive days (earliest occurrence) or at day of discharge was considered as event. If such criterion was not met, time to event was censored at the time point of the last observation of SpO2 collected. For participants who died during the study without experiencing the event, similar LOCF approached was used and a sensitivity analysis was performed as described in Section 1.7.1.1.2.1.
The number and percentage of participants who experience the event without applying censoring rules was reported at Days 3, 5, 7, 15 and 28.
The analysis of the change from baseline in SpO2/FiO2 ratio was based on a MMRM model fitted on observed values for Days 2, 3, 4, 5, 6, 7 and 15. The model included fixed effects for participant-specific SpO2/FiO2 ratio at baseline, respective visit, treatment group, and visit-by-treatment group interaction, and random effects for sites. Repeated measurements for each visit were taken within participant assuming an unstructured covariance pattern within treatment group.
The LS means for the difference in change from baseline at Day 7 between RIPK1 Inhibitor and placebo were provided, jointly with the corresponding 90% confidence interval.
The point estimate of the change from baseline in SpO2/FiO2 ratio and the difference between treatment groups and two-sided 90% confidence interval value were reported for Day 2 to 7 and EOT as described above. Time profile plots of point estimates of the change from baseline (+/−90% Cis) were presented by treatment group.
Missing values for the change from baseline in SpO2/FiO2 ratio were replaced following the LOCF approach, regardless if occurring before or after discontinuation/discharge/death. In case no LOCF could be identified (e.g., no post-baseline value prior to Day 2 to replace a missing Day 2 result), the missing value was not imputed. A sensitivity analysis was performed by repeating the above analysis without any imputation of missing values.

[1] = 600 mg, Baseline, Efficacy population
[2] = 600 mg, Day 2, Efficacy population
[3] = 600 mg, Day 3, Efficacy population
[4] = 600 mg, Day 4, Efficacy population
[5] = 600 mg, Day 5, Efficacy population
[6] = 600 mg, Day 6, Efficacy population
[7] = 600 mg, Day 7, Efficacy population
[8] = 600 mg, Day 8, Efficacy population
[9] = 600 mg, Day 9, Efficacy population
[10] = 600 mg, Day 10, Efficacy population
[11] = 600 mg, Day 11, Efficacy population
[12] = 600 mg, Day 12, Efficacy population
[13] = 600 mg, Day 13, Efficacy population
[14] = 600 mg, Day 14, Efficacy population
[15] = 600 mg, Day 15, Efficacy population
[16] = 600 mg, up to Day 28, Efficacy population

CN1C(=O)[C@@H](NC(=O)c2nnc(Cc3ccccc3)[nH]2)COc2cccnc21 [RIPK1 Inhibitor, (S)-5-benzyl-N-(5-methyl-4-oxo-2,3,4,5-tetrahydropyrido[3,2-b][1,4]oxazepin-3-yl)-4H-1,2,4-triazole-3-carboxamide]
difference of VFDs or RFFDs between the 2 treatment arms in favor of RIPK1 Inhibitor (600 mg vs placebo, based on mean values, 28-day study period): 3 | difference in mean days (without oxygen support, VFDs, RFFDs) in favor of RIPK1 Inhibitor group (600 mg vs placebo, up to 15-day treatment period): 1 days | SpO2/FiO2 ratio, raw data, Mean [1]: 298.0 | SpO2/FiO2 ratio, raw data, Median [1]: 306.3 | SpO2/FiO2 ratio, change from baseline, Mean [2]: 16.8 | SpO2/FiO2 ratio, change from baseline, Median [2]: 3.3 | SpO2/FiO2 ratio, raw data, Mean [2]: 314.8 | SpO2/FiO2 ratio, raw data, Median [2]: 290.9 | Change from baseline in SpO2/FiO2 ratio, point estimate (600 mg, Day 02, Efficacy population): 72.02 | median change from baseline in SpO2/FiO2 ratio (600 mg, Day 2): 3.3 | SpO2/FiO2 ratio, change from baseline, Mean [3]: 43.9 | SpO2/FiO2 ratio, change from baseline, Median [3]: 30.9 | SpO2/FiO2 ratio, raw data, Mean [3]: 337.9 | SpO2/FiO2 ratio, raw data, Median [3]: 330.6 | median change in SpO2/FiO2 ratio from baseline (600 mg, Day 3): 29.0 | Change from baseline in SpO2/FiO2 ratio, point estimate (600 mg, Day 03, Efficacy population): 97.90 | SpO2/FiO2 ratio, change from baseline, Mean [4]: 50.8 | SpO2/FiO2 ratio, change from baseline, Median [4]: 47.3 | SpO2/FiO2 ratio, raw data, Mean [4]: 340.4 | SpO2/FiO2 ratio, raw data, Median [4]: 355.5 | median change in SpO2/FiO2 ratio from baseline (600 mg, Day 4): 38.1 | Change from baseline in SpO2/FiO2 ratio, point estimate (600 mg, Day 04, Efficacy population): 104.61 | median change from baseline in SpO2/FiO2 ratio (600 mg, Day 4): 47.3 | SpO2/FiO2 ratio, change from baseline, Mean [5]: 62.7 | SpO2/FiO2 ratio, change from baseline, Median [5]: 69.6 | SpO2/FiO2 ratio, raw data, Mean [5]: 350.5 | SpO2/FiO2 ratio, raw data, Median [5]: 356.1 | median change in SpO2/FiO2 ratio from baseline (600 mg, Day 5): 70.8 | Change from baseline in SpO2/FiO2 ratio, point estimate (600 mg, Day 05, Efficacy population): 121.79 | SpO2/FiO2 ratio, change from baseline, Mean [6]: 72.5 | SpO2/FiO2 ratio, change from baseline, Median [6]: 73.9 | SpO2/FiO2 ratio, raw data, Mean [6]: 358.7 | SpO2/FiO2 ratio, raw data, Median [6]: 384.0 | median change in SpO2/FiO2 ratio from baseline (600 mg, Day 6): 113.8 | Change from baseline in SpO2/FiO2 ratio, point estimate (600 mg, Day 06, Efficacy population): 134.66 | Change from baseline in SpO2/FiO2 ratio, adjusted treatment difference RIPK1 Inhibitor vs placebo [6]: 28.71 | median change from baseline in SpO2/FiO2 ratio (600 mg, Day 6): 73.9 | SpO2/FiO2 ratio, change from baseline, Mean [7]: 89.2 | SpO2/FiO2 ratio, change from baseline, Median [7]: 124.1 | SpO2/FiO2 ratio, raw data, Mean [7]: 367.1 | SpO2/FiO2 ratio, raw data, Median [7]: 418.2 | median change in SpO2/FiO2 ratio from baseline (600 mg, Day 7): 115.3 | Change from baseline in SpO2/FiO2 ratio, point estimate (600 mg, Day 07, Efficacy population): 142.21 | Change from baseline in SpO2/FiO2 ratio, adjusted treatment difference RIPK1 Inhibitor vs placebo [7]: 25.24 | median change from baseline in SpO2/FiO2 ratio (600 mg, Day 7): 124.1 | SpO2/FiO2 ratio, change from baseline, Mean [8]: 99.2 | SpO2/FiO2 ratio, change from baseline, Median [8]: 131.4 | SpO2/FiO2 ratio, raw data, Mean [8]: 371.5 | SpO2/FiO2 ratio, raw data, Median [8]: 433.3 | median change in SpO2/FiO2 ratio from baseline (600 mg, Day 8): 125.6 | SpO2/FiO2 ratio, change from baseline, Mean [9]: 111.2 | SpO2/FiO2 ratio, change from baseline, Median [9]: 150.0 | SpO2/FiO2 ratio, raw data, Mean [9]: 381.8 | SpO2/FiO2 ratio, raw data, Median [9]: 445.2 | SpO2/FiO2 ratio, change from baseline, Mean [10]: 119.8 | SpO2/FiO2 ratio, change from baseline, Median [10]: 133.8 | SpO2/FiO2 ratio, raw data, Mean [10]: 386.7 | SpO2/FiO2 ratio, raw data, Median [10]: 447.6 | SpO2/FiO2 ratio, change from baseline, Mean [11]: 111.0 | SpO2/FiO2 ratio, change from baseline, Median [11]: 153.7 | SpO2/FiO2 ratio, raw data, Mean [11]: 373.2 | SpO2/FiO2 ratio, raw data, Median [11]: 445.2 | SpO2/FiO2 ratio, change from baseline, Mean [12]: 138.8 | SpO2/FiO2 ratio, change from baseline, Median [12]: 190.3 | SpO2/FiO2 ratio, raw data, Mean [12]: 401.0 | SpO2/FiO2 ratio, raw data, Median [12]: 452.4 | SpO2/FiO2 ratio, change from baseline, Mean [13]: 129.1 | SpO2/FiO2 ratio, change from baseline, Median [13]: 195.1 | SpO2/FiO2 ratio, raw data, Mean [13]: 389.5 | SpO2/FiO2 ratio, raw data, Median [13]: 457.1 | SpO2/FiO2 ratio, change from baseline, Mean [14]: 139.4 | SpO2/FiO2 ratio, change from baseline, Median [14]: 192.7 | SpO2/FiO2 ratio, raw data, Mean [14]: 414.8 | SpO2/FiO2 ratio, raw data, Median [14]: 454.8 | SpO2/FiO2 ratio, change from baseline, Mean [15]: 160.6 | SpO2/FiO2 ratio, change from baseline, Median [15]: 195.1 | SpO2/FiO2 ratio, raw data, Mean [15]: 436.0 | SpO2/FiO2 ratio, raw data, Median [15]: 457.1 | median change in SpO2/FiO2 ratio from baseline (600 mg, Day 15): 135.1 | Change from baseline in SpO2/FiO2 ratio, point estimate [15]: 174.65 | median change from baseline in SpO2/FiO2 ratio (600 mg, Day 15): 195.1 | median time to improvement of oxygenation (SpO2 >=92% breathing room air) (600 mg, Kaplan-Meier, Efficacy population): 6 days | Number of Days without need for Oxygen Support and Alive, Mean [16]: 20.5 days | Number of Days without need for Oxygen Support and Alive, Median [16]: 23.0 days | Number of Respiratory Failure-Free Days and Alive, Mean [16]: 25.9 days | Number of Respiratory Failure-Free Days and Alive, Median [16]: 28.0 days | Number of Ventilator-Free Days and Alive, Mean [16]: 26.0 days | Number of Ventilator-Free Days and Alive, Median [16]: 28.0 days
